Assay results from patent US7217802B2, “Method and kit for detecting, or determining, 3,4-methylenedioxymethamphetamine” (Randox Laboratories Limited, priority 2001, dated 2007).
In brackets after ≈: the same amount, converted by molar mass. Like-named read-outs stand apart in the source and are kept apart here.

Legend:
[1] = tested on: Cedia DAU; details: cited from earlier work
[2] = tested on: Emit II Plus Monoclonal; details: cited from earlier work
[3] = tested on: antiserum raised to immunogen 7 (IgG fraction); assay: MDMA competitive ELISA (microtiter plate); type: binding, sheep; details: for IC50 / % CR (cross-reactivity = IC50MDMA/IC50CR x 100): Hapten 7-HRP; for % CR (cross-reactivity = IC50MDMA/IC50CR x 100): relative to MDMA 100; for level of cross-reactivity of the MDMA assays (in words): summary of Table 2
Description: An aqueous solution of the immunogen prepared in Example 8 was formulated with Freund's Complete Adjuvant (FCA) to form an emulsion consisting of 2 mg/ml immunogen in 50% (v/v) FCA. Two sheep were immunised with this emulsion, 0.25 ml being subcutaneously injected at each of 4 sites in the flank of each animal. Subsequent immunisations (boosts) contained 1 mg/ml immunogen emulsified in 50% (v/v) Freund's Incomplete Adjuvant (FIA) and were administered in the same manner at monthly intervals for 1 year. Blood sampling took place 7 to 14 days after each boost. Each sample was processed to produce antiserum that was further purified by caprylic acid and ammonium sulfate precipitation to yield an immunoglobulin G (IgG) fraction. The IgG fraction was evaluated by competitive microtiter plate assay, as described below.
The wells of an enhanced binding 96 well polystyrene microtiter plate were coated with the IgG fraction of the antiserum raised to Immunogen 7 (Example 8), diluted in 10 mM Tris, pH8.5 (125 μl/well). The appropriate antibody coating dilution was determined using standard ELISA chequerboard techniques. The plate was incubated for 2 hours at 37° C., washed 4 times with Tris buffered saline containing Tween 20 (TBST) and tapped dry. Standard solutions of MDMA were prepared in TBST at 0, 1, 10, 50, 100, 250, 500 and 1000 ng/ml and 25 μl of each was added to the appropriate wells (FIG. 2). Conjugates (detection reagents)-hapten 7-HRP (Example 9) and hapten 10-HRP (Example 12)—were diluted in Tris buffer, pH7.2, containing EDTA, D-mannitol, sucrose, thimerosal and BSA, appropriate dilutions being determined by standard ELISA chequerboard techniques, and 100 μl of each was added to the appropriate wells (FIG. 2). The plate was incubated at 37° C. for 2 hours. Excess unbound conjugate was removed by washing 6 times over a 10 minute period with TBST.
125 μl of tetramethylbenzidine (TMB) substrate solution was added to each well of the plate which was then incubated for 15 to 20 minutes in the dark at room temperature. The reaction was terminated by addition of 125 μl 0.2 M H2SO4 to each well. The absorbance was then measured at 450 nm using a microtiter plate reader.
In order to determine the specificity of the MDMA competitive ELISAs, standard solutions of potential cross-reactants MDEA, MDA, d-amphetamine, (+)-methamphetamine, (+)-ephedrine, (−)-ephedrine, (+)-pseudoephedrine, (−)-pseudoephedrine and 1-amphetamine were prepared in TBST at 0, 500, 1000, 5000, 10000, 25000, 50000 and 100000 ng/ml. Employing each series of standards in the MDMA competitive ELISAs, calibration curves were generated and these were used to determine the cross-reactivity of the immunoassays with these drugs. The results of this study are presented in Table 2, cross-reactivity being calculated according to the following formula: % CR=IC50MDMA/IC50CR×100
Where % CR is the percentage cross-reactivity, IC50MDMA is the concentration of MDMA that causes 50% displacement of signal and IC50CR is the concentration of potential cross-reactant, for which % CR is being evaluated, that causes 50% displacement of signal.

[4] = tested on: Cozart Amphetamine; details: recalculated relative to 100% for MDMA; cited from earlier work
[5] = tested on: Cozart Methamphetamine and MDMA; details: cited from earlier work; for cross-reactivity, Cozart Methamphetamine and MDMA: recalculated relative to 100% for MDMA
[6] = tested on: Cozart methamphetamine EIA; details: cited from earlier work; for cross-reactivity, Cozart Methamphetamine: recalculated relative to 100% for MDMA; for cross-reactivity, Cozart methamphetamine EIA: compared to 100% for methamphetamine
[7] = tested on: Cozart MDMA EIA; details: cited from earlier work; for cross-reactivity, Cozart MDMA: recalculated relative to 100% for MDMA; for cross-reactivity, Cozart MDMA EIA: compared to 100% for MDMA
[8] = in vivo; cited from earlier work
[9] = recalculated relative to 100% for MDMA

Molecule: CC(N)Cc1ccccc1 (racemic) [D,L-Amphetamine]
- cross-reactivity, CEDIA [1, 9]: 84.1%
- cross-reactivity, Emit [2, 9]: 545.6%

Molecule: CN[C@@H](C)Cc1ccccc1 (racemic) [D,L-Methamphetamine]
- cross-reactivity, CEDIA [1, 9]: 94.25%
- cross-reactivity, Emit [2, 9]: 699.7%

Molecule: CN[C@H](C)[C@@H](O)c1ccccc1 [(+)-Ephedrine]
- IC50 ([3]; Trial 1): >100 µg/mL
- % CR (cross-reactivity = IC50MDMA/IC50CR x 100) ([3]; Trial 1): <0.017%

Molecule: CN[C@@H](C)[C@H](O)c1ccccc1 [(−)-Ephedrine]
- IC50 ([3]; Trial 1): >100 µg/mL
- % CR (cross-reactivity = IC50MDMA/IC50CR x 100) ([3]; Trial 1): <0.017%

Molecule: C[C@H](N)Cc1ccccc1 [D-Amphetamine]
- IC50 ([3]; Trial 1): 52.199 µg/mL (≈ 386 µM)
- % CR (cross-reactivity = IC50MDMA/IC50CR x 100) ([3]; Trial 1): 0.03%
- level of cross-reactivity of the MDMA assays (in words) [3]: very low levels of cross-reactivity
- cross-reactivity, Cozart Amphetamine [4]: 1,428%
- cross-reactivity, Cozart Methamphetamine and MDMA [5]: 1.52%
- cross-reactivity, Cozart Methamphetamine [6]: 1%
- cross-reactivity, Cozart MDMA [7]: 0.2–0.43%
- cross-reactivity, CEDIA [1, 9]: 146.5%
- cross-reactivity, Emit [2, 9]: 917%

Molecule: CN[C@@H](C)Cc1ccccc1 [D-Methamphetamine]
- IC50 ([3]; Trial 1): 11.138 µg/mL (≈ 74.6 µM)
- % CR (cross-reactivity = IC50MDMA/IC50CR x 100) ([3]; Trial 1): 0.15%
- level of cross-reactivity of the MDMA assays (in words) [3]: very low levels of cross-reactivity
- cross-reactivity, Cozart Methamphetamine and MDMA [5]: 217%
- cross-reactivity, Cozart Methamphetamine [6]: 10%
- cross-reactivity, Cozart MDMA EIA [7]: 52–80%
- cross-reactivity, Cozart MDMA [7]: 52–80%
- cross-reactivity, CEDIA [1, 9]: 145%

Molecule: C[C@@H](N)Cc1ccccc1 [L-Amphetamine]
- IC50 ([3]; Trial 2): >30 µg/mL
- % CR (cross-reactivity = IC50MDMA/IC50CR x 100) ([3]; Trial 2): <0.1%
- cross-reactivity, CEDIA [1, 9]: 4.35%
- cross-reactivity, Emit [2, 9]: 120.13%

Molecule: CN[C@H](C)Cc1ccccc1 [L-Methamphetamine]
- cross-reactivity, Cozart MDMA [7]: 4–22%
- cross-reactivity, CEDIA [1, 9]: 17.4%
- cross-reactivity, Emit [2, 9]: 378.7%

Molecule: CCC(Cc1ccc2c(c1)OCO2)NC (centres unmarked) [MBDB, N-methyl-1-(3,4-methylenedioxyphenyl)-2-butamine]
- cross-reactivity, Cozart Methamphetamine and MDMA [5]: 319–334.2%
- cross-reactivity, Cozart methamphetamine EIA [6]: 150–200%
- cross-reactivity, Cozart Methamphetamine [6]: 15–20%
- cross-reactivity, Cozart MDMA EIA [7]: 10.4–20%
- cross-reactivity, Cozart MDMA [7]: 10.4–20^ %

Molecule: CC(N)Cc1ccc2c(c1)OCO2 (centres unmarked) [MDA, 3,4-methylenedioxyamphetamine]
- IC50 ([3]; Trial 1): 0.3 µg/mL (≈ 1.67 µM)
- % CR (cross-reactivity = IC50MDMA/IC50CR x 100) ([3]; Trial 1): 5.7%
- level of cross-reactivity of the MDMA assays (in words) [3]: lower levels of cross-reactivity
- cross-reactivity, Cozart Amphetamine [4]: 208488–304164%
- cross-reactivity, Cozart Methamphetamine and MDMA [5]: 0.87%
- cross-reactivity, Cozart Methamphetamine [6]: 0.36%
- cross-reactivity, Cozart MDMA [7]: 0.3–0.74%
- cross-reactivity, CEDIA [1, 9]: 2.76%
- cross-reactivity, Emit [2, 9]: 430.1%

Molecule: CCNC(C)Cc1ccc2c(c1)OCO2 (centres unmarked) [MDEA, 3,4-methylenedioxyethylamphetamine]
- IC50 ([3]; Trial 2): 0.015 µg/mL (≈ 0.0724 µM)
- % CR (cross-reactivity = IC50MDMA/IC50CR x 100) ([3]; Trial 2): 200%
- level of cross-reactivity of the MDMA assays (in words) [3]: high levels of cross-reactivity
- cross-reactivity, Cozart Amphetamine [4]: 228.5%
- cross-reactivity, Cozart Methamphetamine and MDMA [5]: 10.85%
- cross-reactivity, Cozart methamphetamine EIA [6]: 50–100%
- cross-reactivity, Cozart Methamphetamine [6]: 5–10%
- cross-reactivity, Cozart MDMA [7]: 7.0–13.0%

Molecule: CNC(C)Cc1ccc2c(c1)OCO2 (centres unmarked) [MDMA, 3,4-methylenedioxymethamphetamine]
- IC50 (standard concentration which produces 50% B/B0) ([3]; Conjugate 7 (hapten 7-HRP)): 0.017 µg/mL (≈ 0.088 µM)
- % B/B0 ([3]; Conjugate 7 (hapten 7-HRP), standard concentration 1 ng/ml): 83.4%
- % B/B0 ([3]; Conjugate 7 (hapten 7-HRP), standard concentration 10 ng/ml): 58%
- % B/B0 ([3]; Conjugate 7 (hapten 7-HRP), standard concentration 50 ng/ml): 34.7%
- % B/B0 ([3]; Conjugate 7 (hapten 7-HRP), standard concentration 100 ng/ml): 26%
- % B/B0 ([3]; Conjugate 7 (hapten 7-HRP), standard concentration 250 ng/ml): 15.9%
- % B/B0 ([3]; Conjugate 7 (hapten 7-HRP), standard concentration 500 ng/ml): 10.9%
- % B/B0 ([3]; Conjugate 7 (hapten 7-HRP), standard concentration 1000 ng/ml): 7.5%
- IC50 (standard concentration which produces 50% B/B0) ([3]; Conjugate 10 (hapten 10-HRP)): 0.0236 µg/mL (≈ 0.122 µM)
- % B/B0 ([3]; Conjugate 10 (hapten 10-HRP), standard concentration 1 ng/ml): 86.1%
- % B/B0 ([3]; Conjugate 10 (hapten 10-HRP), standard concentration 10 ng/ml): 59.3%
- % B/B0 ([3]; Conjugate 10 (hapten 10-HRP), standard concentration 50 ng/ml): 34.4%
- % B/B0 ([3]; Conjugate 10 (hapten 10-HRP), standard concentration 100 ng/ml): 28.3%
- % B/B0 ([3]; Conjugate 10 (hapten 10-HRP), standard concentration 250 ng/ml): 19.6%
- % B/B0 ([3]; Conjugate 10 (hapten 10-HRP), standard concentration 500 ng/ml): 14.4%
- % B/B0 ([3]; Conjugate 10 (hapten 10-HRP), standard concentration 1000 ng/ml): 8.97%
- IC50 ([3]; Trial 1): 0.017 µg/mL (≈ 0.088 µM)
- % CR (cross-reactivity = IC50MDMA/IC50CR x 100) ([3]; Trial 1): 100%
- IC50 ([3]; Trial 2): 0.03 µg/mL (≈ 0.155 µM)
- % CR (cross-reactivity = IC50MDMA/IC50CR x 100) ([3]; Trial 2): 100%
- cross-reactivity, Cozart Amphetamine [4]: 100%
- cross-reactivity, single Cozart methamphetamine kit ([5]; compared to 100% for methamphetamine): 43–49%
- cross-reactivity, Cozart Methamphetamine and MDMA [5]: 100%
- cross-reactivity, Cozart methamphetamine EIA [6]: 758–1250%
- cross-reactivity, Cozart Methamphetamine [6]: 100%
- cross-reactivity, Cozart MDMA [7]: 100%
- cross-reactivity, CEDIA ([1]; compared to 100% for D-methamphetamine): 69%
- cross-reactivity, CEDIA [1, 9]: 100%
- cross-reactivity, Emit ([2]; compared to 100% for D,L-methamphetamine): 14.3%
- cross-reactivity, Emit [2, 9]: 100%
- excreted unchanged in urine [8]: 65%

Molecule: (+)-Pseudoephedrine
- IC50 ([3]; Trial 1): >100 µg/mL
- % CR (cross-reactivity = IC50MDMA/IC50CR x 100) ([3]; Trial 1): <0.017%

Molecule: (−)-Pseudoephedrine
- IC50 ([3]; Trial 1): >100 µg/mL
- % CR (cross-reactivity = IC50MDMA/IC50CR x 100) ([3]; Trial 1): <0.017%
